Laboratory results: ChEMBL document CHEMBL1201862, “PubChem BioAssay data set” (2004)
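Tested at 5 concentrations; 48 h exposure; 96-well plates; endpoints linearly interpolated, else capped at highest concentration. At the GI50, growth is halved.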 The source made the active and inactive calls. Rule as the data show it: active = GI50 up to about 1.1 µM and inactive = higher.

What was measured:
Assay in all cases: NCI anticancer screen, dose series, 48 h
786-0 = tested on: 786-0
CAKI-1 = tested on: CAKI-1
CCRF-CEM = tested on: CCRF-CEM
COLO 205 = tested on: COLO 205
DLD-1 = tested on: DLD-1
DMS-114 = tested on: DMS-114
DMS-273 = tested on: DMS-273
HCC 2998 = tested on: HCC 2998
HCT-116 = tested on: HCT-116
HL-60 = tested on: HL-60
HOP-62 = tested on: HOP-62
HOP-92 = tested on: HOP-92
IGROV-1 = tested on: IGROV-1
K562 = tested on: K562
LXFL 529 = tested on: LXFL 529
M14 = tested on: M14
M19-MEL = tested on: M19-MEL
MOLT-4 = tested on: MOLT-4
Malme-3M = tested on: Malme-3M
NCI-H226 = tested on: NCI-H226
NCI-H23 = tested on: NCI-H23
NCI-H522 = tested on: NCI-H522
OVCAR-4 = tested on: OVCAR-4
RPMI-8226 = tested on: RPMI-8226
SF-268 = tested on: SF-268
SF-539 = tested on: SF-539
SK-MEL-28 = tested on: SK-MEL-28
SK-MEL-2 = tested on: SK-MEL-2
SK-OV-3 = tested on: SK-OV-3
SNB-75 = tested on: SNB-75
SNB-78 = tested on: SNB-78
SR = tested on: SR
UACC-62 = tested on: UACC-62
UO-31 = tested on: UO-31
A498 = tested on: A498
A549 = tested on: A549
ACHN = tested on: ACHN
EKVX = tested on: EKVX
HCT-15 = tested on: HCT-15
KM-20L2 = tested on: KM-20L2
KM12 = tested on: KM12
LOX IMVI = tested on: LOX IMVI
NCI-H460 = tested on: NCI-H460
OVCAR-3 = tested on: OVCAR-3
OVCAR-5 = tested on: OVCAR-5
OVCAR-8 = tested on: OVCAR-8
RXF 393 = tested on: RXF 393
SK-MEL-5 = tested on: SK-MEL-5
SNB-19 = tested on: SNB-19
SW-620 = tested on: SW-620
TK-10 = tested on: TK-10
U-251 = tested on: U-251
UACC-257 = tested on: UACC-257

Cc1c2cc(Cl)ccc2n2c(=O)c3ccccc3[nH]c(=O)c12
GI50 (786-0): 41.5 µM (inactive) | GI50 (CAKI-1): > 100 µM (inactive) | GI50 (CCRF-CEM): 36.1 µM (inactive) | GI50 (COLO 205): > 100 µM (inactive) | GI50 (DLD-1): > 100 µM (inactive) | GI50 (DMS-114): > 100 µM (inactive) | GI50 (DMS-273): > 100 µM (inactive) | GI50 (HCC 2998): > 100 µM (inactive) | GI50 (HCT-116): 69.2 µM (inactive) | GI50 (HL-60): > 10 µM (inactive) | GI50 (HOP-62): 31.2 µM (inactive) | GI50 (HOP-92): > 100 µM (inactive) | GI50 (IGROV-1): > 100 µM (inactive) | GI50 (K562): 50.1 µM (inactive) | GI50 (LXFL 529): > 100 µM (inactive) | GI50 (M14): > 100 µM (inactive) | GI50 (M19-MEL): > 100 µM (inactive) | GI50 (MOLT-4): 42.9 µM (inactive) | GI50 (Malme-3M): > 100 µM (inactive) | GI50 (NCI-H226): > 100 µM (inactive) | GI50 (NCI-H23): > 100 µM (inactive) | GI50 (NCI-H522): > 100 µM (inactive) | GI50 (OVCAR-4): 49.8 µM (inactive) | GI50 (RPMI-8226): > 100 µM (inactive) | GI50 (SF-268): > 100 µM (inactive) | GI50 (SF-539): 78.2 µM (inactive) | GI50 (SK-MEL-28): > 100 µM (inactive) | GI50 (SK-MEL-2): > 100 µM (inactive) | GI50 (SK-OV-3): > 100 µM (inactive) | GI50 (SNB-75): 59.6 µM (inactive) | GI50 (SNB-78): > 100 µM (inactive) | GI50 (SR): 45.3 µM (inactive) | GI50 (UACC-62): > 100 µM (inactive) | GI50 (UO-31): > 100 µM (inactive)

O=C1NC(=O)C(C(=O)C(=O)Nc2cccc(C(F)(F)F)c2)C(=O)N1
GI50 (786-0): > 100 µM (inactive) | GI50 (A498): > 100 µM (inactive) | GI50 (A549): > 100 µM (inactive) | GI50 (ACHN): > 100 µM (inactive) | GI50 (CAKI-1): > 100 µM (inactive) | GI50 (CCRF-CEM): > 100 µM (inactive) | GI50 (COLO 205): > 100 µM (inactive) | GI50 (DLD-1): > 100 µM (inactive) | GI50 (DMS-114): > 100 µM (inactive) | GI50 (EKVX): > 100 µM (inactive) | GI50 (HCC 2998): > 100 µM (inactive) | GI50 (HCT-116): > 100 µM (inactive) | GI50 (HCT-15): > 100 µM | GI50 (HL-60): > 100 µM (inactive) | GI50 (HOP-62): > 100 µM (inactive) | GI50 (IGROV-1): > 100 µM (inactive) | GI50 (K562): > 100 µM (inactive) | GI50 (KM-20L2): > 100 µM (inactive) | GI50 (KM12): > 100 µM (inactive) | GI50 (LOX IMVI): > 100 µM (inactive) | GI50 (LXFL 529): > 100 µM (inactive) | GI50 (M14): > 100 µM (inactive) | GI50 (M19-MEL): > 100 µM (inactive) | GI50 (MOLT-4): > 100 µM (inactive) | GI50 (Malme-3M): > 100 µM (inactive) | GI50 (NCI-H23): > 100 µM (inactive) | GI50 (NCI-H460): > 100 µM (inactive) | GI50 (NCI-H522): > 100 µM (inactive) | GI50 (OVCAR-3): > 100 µM (inactive) | GI50 (OVCAR-4): > 100 µM (inactive) | GI50 (OVCAR-5): > 100 µM (inactive) | GI50 (OVCAR-8): > 100 µM (inactive) | GI50 (RPMI-8226): > 100 µM (inactive) | GI50 (RXF 393): > 100 µM (inactive) | GI50 (SF-268): > 100 µM (inactive) | GI50 (SF-539): > 100 µM (inactive) | GI50 (SK-MEL-28): > 100 µM (inactive) | GI50 (SK-MEL-2): > 100 µM (inactive) | GI50 (SK-MEL-5): > 100 µM (inactive) | GI50 (SK-OV-3): > 100 µM (inactive) | GI50 (SNB-19): > 100 µM (inactive) | GI50 (SNB-75): 52.8 µM (inactive) | GI50 (SNB-78): > 100 µM (inactive) | GI50 (SW-620): > 100 µM (inactive) | GI50 (TK-10): > 100 µM (inactive) | GI50 (U-251): > 100 µM (inactive) | GI50 (UACC-257): 53 µM (inactive) | GI50 (UACC-62): > 100 µM (inactive) | GI50 (UO-31): > 100 µM (inactive)
